Like-named read-outs stand apart in the source and are kept apart here.
Experiments:
[1] = biological target: T1, human norepinephrine (hNET) uptake transporter (Homo sapiens, UniProt P23975); experiment: Monoamine uptake inhibition, norepinephrine uptake in transfected HEK293 cells; format: cell-based; details: for fold higher inhibition potency at the NET: compared to α-PPP
T1 construct: expressed in transfected cells; host or cells: HEK293
Method: (§1) The monoamine uptake transporter inhibition was examined in accordance with previously described methods by for each substance of interest.
(§2) Human embryonic kidney 293 (HEK293) cells (Invitrogen, Zug, Switzerland) stably transfected with the human norepinephrine (hNET), dopamine (hDAT), or serotonin (hSERT) uptake transporters were briefly cultured in Dulbecco’s modified Eagle’s medium (DMEM; Gibco, Life Technologies, Zug, Switzerland) containing 10% fetal bovine serum and 250 μg/mL geneticin (Gibco, Life Technologies, Zug, Switzerland). Next, the cells were detached at a confluency of 70−90% and resuspended in Krebs–Ringer Bicarbonate Buffer (Sigma-Aldrich, Buchs, Switzerland) at a concentration of 3 × 10^6 cells per ml. The uptake buffer was additionally supplemented with 0.2 mg/mL of ascorbic acid (Sigma–Aldrich, Buchs, Switzerland) for the [^3H]-DA uptake experiments.
(§3) In summary, using round bottom 96-well plates, 100 μL of cell suspension was incubated in 25 μL of buffer containing test substances, vehicle control (0.7% dimethyl sulfoxide, DMSO), or 10 μM of the respective monoamine uptake inhibitor, mainly fluoxetine (SERT), nisoxetine (NET), or mazindol (DAT) for 10 min at room temperature while on a rotary shaker at 450 rpm (Thermomixer Comfort, Eppendorf, Hamburg, Germany). Thereafter, the monoamine uptake transporter was initiated by the addition of 50 μL of each respective radiolabelled neurotransmitter ([^3H]-5-HT, [^3H]-DA or [^3H]-NE) dissolved in the uptake buffer to a final concentration of 5 nM for an additional 10 min. Then, 100 μL of cell suspension mixture was transferred to microcentrifuge tubes containing 50 μL of 3 M potassium hydroxide (KOH, Sigma–Aldrich, Buchs, Switzerland) and 200 μL silicon oil (1:1 mixture of silicon oil type AR20 and AR200; Sigma–Aldrich, Buchs, Switzerland). Immediately after, the tubes were centrifugated (3 min, 13200 rpm) to terminate the uptake reaction by allowing the cells to move through the silicon oil into the KOH, which then lysed the cells. Quickly after, the tubes were immediately frozen with liquid nitrogen. Afterwards, the frozen cell pellet was cut off into 6 mL scintillation vials (Perkin–Elmer, Schwerzenbach, Switzerland) filled with 500 μL of lysis buffer (5 mM EDTA, 0.05 M TRIS-HCl, 50 mM NaCl and 1% NP-40 in water). Directly after the vials were shaken for 1 h at 700 rpm and then each vial was filled with 3 mL of scintillation fluid (Ultimagold, Perkin–Elmer, Schwerzenbach, Switzerland). The uptake of the monoamines was measured using a liquid scintillation counter (Packard Tri-Carb Liquid Scintillation Counter 1900 TR).
(§4) The data were analysed using Prism software (version 8, GraphPad, San Diego, CA, USA) and was fitted by a nonlinear regression to variable-slope sigmoidal dose-response curve. The IC50 values were extracted in order to determine each drug’s inhibition potency at the various monoamine transporters.

[2] = biological target: T2, human dopamine (hDAT) uptake transporter (Homo sapiens, UniProt Q01959); experiment: Monoamine uptake inhibition, dopamine uptake in transfected HEK293 cells; format: cell-based
T2 construct: expressed in transfected cells; host or cells: HEK293
Method: as §1, §2, §3, §4

[3] = biological target: T3, human serotonin (hSERT) uptake transporter (Homo sapiens, UniProt P31645); experiment: Monoamine uptake inhibition, serotonin uptake in transfected HEK293 cells; format: cell-based
T3 construct: expressed in transfected cells; host or cells: HEK293
Method: as §1, §2, §3, §4

[4] = biological target: hDAT (Homo sapiens, UniProt Q01959); details: read-out: hDAT Receptor Binding Ki ± SD, [3H]-WIN-35,428, cited from earlier work
[5] = biological target: hSERT (Homo sapiens, UniProt P31645); details: read-out: hSERT Receptor Binding Ki ± SD, [3H]-Citalopram, cited from earlier work
[6] = biological target: dopaminergic D2 receptor (Homo sapiens, UniProt P14416); details: read-out: D2 Receptor Binding Ki ± SD, [3H]-Spiperone, cited from earlier work
[7] = biological target: T4, adrenergic α1A receptor (Homo sapiens, UniProt P35348); details: [3H]-Prazosin, read-out: α1A Receptor Binding Ki ± SD, cited from earlier work
T4 sequence (P35348 1-466): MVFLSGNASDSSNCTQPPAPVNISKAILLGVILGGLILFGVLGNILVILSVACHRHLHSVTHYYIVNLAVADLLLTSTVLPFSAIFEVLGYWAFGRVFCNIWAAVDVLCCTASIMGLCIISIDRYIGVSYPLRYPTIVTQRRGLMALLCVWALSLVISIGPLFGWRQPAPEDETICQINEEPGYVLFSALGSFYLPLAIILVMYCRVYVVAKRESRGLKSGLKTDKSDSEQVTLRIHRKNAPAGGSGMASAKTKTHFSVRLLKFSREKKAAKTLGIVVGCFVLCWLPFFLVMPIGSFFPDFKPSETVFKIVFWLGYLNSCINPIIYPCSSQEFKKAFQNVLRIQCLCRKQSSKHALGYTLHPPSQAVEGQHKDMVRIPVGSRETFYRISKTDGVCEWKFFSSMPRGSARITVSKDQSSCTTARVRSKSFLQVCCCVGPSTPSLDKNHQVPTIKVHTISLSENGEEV

[8] = biological target: Mouse TAAR1; details: [3H]-RO5166017, read-out: Mouse TAAR1 Receptor Binding Ki ± SD, cited from earlier work
[9] = compared to pyrovalerone and MPHP
[10] = ref Luethi, Kolaczynska et al. (2019)

Chain of hSERT (P31645 whole entry): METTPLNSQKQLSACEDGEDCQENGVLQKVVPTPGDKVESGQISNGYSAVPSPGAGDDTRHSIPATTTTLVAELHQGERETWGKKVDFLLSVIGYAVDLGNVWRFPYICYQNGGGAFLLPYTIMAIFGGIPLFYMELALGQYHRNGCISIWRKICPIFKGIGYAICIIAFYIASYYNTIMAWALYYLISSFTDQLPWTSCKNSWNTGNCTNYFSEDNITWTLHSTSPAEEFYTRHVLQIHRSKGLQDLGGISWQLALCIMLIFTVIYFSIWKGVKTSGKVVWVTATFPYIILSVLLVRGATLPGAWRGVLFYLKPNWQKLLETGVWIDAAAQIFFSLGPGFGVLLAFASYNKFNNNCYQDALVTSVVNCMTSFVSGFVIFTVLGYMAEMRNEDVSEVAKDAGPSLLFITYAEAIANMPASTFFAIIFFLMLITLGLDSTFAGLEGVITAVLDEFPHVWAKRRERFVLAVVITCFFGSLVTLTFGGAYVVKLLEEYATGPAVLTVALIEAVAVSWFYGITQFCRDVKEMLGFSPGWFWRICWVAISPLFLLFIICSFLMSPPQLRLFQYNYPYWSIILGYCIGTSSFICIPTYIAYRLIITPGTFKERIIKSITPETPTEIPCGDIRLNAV
T3 sequence (P31645 whole entry): as above
T1 sequence (P23975 whole entry): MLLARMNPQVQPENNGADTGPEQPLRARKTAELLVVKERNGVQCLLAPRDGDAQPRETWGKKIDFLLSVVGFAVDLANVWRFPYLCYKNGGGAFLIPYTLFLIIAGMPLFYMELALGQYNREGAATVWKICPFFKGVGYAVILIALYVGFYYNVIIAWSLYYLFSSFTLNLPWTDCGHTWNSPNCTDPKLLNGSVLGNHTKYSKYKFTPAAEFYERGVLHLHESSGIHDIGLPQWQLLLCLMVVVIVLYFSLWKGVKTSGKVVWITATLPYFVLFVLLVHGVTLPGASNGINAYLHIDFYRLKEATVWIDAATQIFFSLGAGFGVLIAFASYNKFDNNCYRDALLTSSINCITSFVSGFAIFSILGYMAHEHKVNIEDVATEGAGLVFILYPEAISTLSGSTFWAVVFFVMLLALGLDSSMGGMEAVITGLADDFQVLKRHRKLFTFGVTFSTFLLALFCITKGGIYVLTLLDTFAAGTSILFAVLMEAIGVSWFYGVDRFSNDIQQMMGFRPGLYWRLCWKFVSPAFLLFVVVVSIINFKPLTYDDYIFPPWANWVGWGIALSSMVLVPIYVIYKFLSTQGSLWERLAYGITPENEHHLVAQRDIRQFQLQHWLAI
Chain of dopaminergic D2 receptor (P14416 whole entry): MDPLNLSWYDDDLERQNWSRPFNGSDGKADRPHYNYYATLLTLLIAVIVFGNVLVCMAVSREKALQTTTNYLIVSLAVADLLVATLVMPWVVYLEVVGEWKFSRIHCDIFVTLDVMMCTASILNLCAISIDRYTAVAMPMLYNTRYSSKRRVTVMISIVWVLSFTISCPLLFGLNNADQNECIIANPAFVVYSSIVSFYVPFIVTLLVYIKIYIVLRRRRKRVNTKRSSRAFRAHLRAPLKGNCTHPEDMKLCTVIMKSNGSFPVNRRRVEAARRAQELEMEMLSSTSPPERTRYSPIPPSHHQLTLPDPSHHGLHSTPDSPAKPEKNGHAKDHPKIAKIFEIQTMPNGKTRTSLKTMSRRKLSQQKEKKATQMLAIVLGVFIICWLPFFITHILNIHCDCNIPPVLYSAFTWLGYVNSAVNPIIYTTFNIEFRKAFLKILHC
Chain of hDAT (Q01959 whole entry): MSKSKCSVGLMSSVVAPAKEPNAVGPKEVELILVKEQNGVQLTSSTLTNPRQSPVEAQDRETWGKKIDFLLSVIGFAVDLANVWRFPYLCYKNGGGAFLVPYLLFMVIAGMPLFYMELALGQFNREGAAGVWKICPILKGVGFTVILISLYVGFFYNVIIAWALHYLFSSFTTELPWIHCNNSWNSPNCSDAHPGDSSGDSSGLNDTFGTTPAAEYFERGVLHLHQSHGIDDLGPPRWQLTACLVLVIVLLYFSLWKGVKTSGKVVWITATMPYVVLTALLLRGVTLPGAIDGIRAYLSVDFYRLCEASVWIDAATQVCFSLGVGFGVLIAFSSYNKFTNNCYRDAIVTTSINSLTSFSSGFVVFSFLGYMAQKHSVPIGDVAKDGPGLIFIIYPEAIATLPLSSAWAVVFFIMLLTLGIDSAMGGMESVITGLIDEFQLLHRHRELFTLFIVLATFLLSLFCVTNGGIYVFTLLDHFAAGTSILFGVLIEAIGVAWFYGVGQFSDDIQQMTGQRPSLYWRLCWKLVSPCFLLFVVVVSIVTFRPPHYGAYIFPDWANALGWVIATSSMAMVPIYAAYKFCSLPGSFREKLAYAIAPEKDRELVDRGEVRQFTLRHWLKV
T2 sequence (Q01959 whole entry): as above

## Cc1ccc(C(=O)C(C)N2CCCC2)cc1 (stereo not drawn) [4-MePPP, 4-methyl-α-pyrrolidinopropiophenone]
[1]
  IC50: 640 nM
[1]; [9]
  fold lower potency at the NET: 11 fold
[2]
  IC50: 750 nM
[2]; [9]
  fold lower potency at the DAT: 15 fold
[3]
  IC50: 55 µM

## CCC(C(=O)c1ccc(F)cc1)N1CCCC1 (stereo not drawn) [4F-PBP, 4-fluoro-α-pyrrolidinobutiophenone]
[1]
  IC50: 610 nM
[2]
  IC50: 500 nM
[3]
  IC50: 177 µM

## CNC(C)Cc1ccc2c(c1)OCO2 (centres unmarked) [MDMA, 3,4-methylenedioxymethamphetamine, reference compound]
[1]
  IC50: 410 nM
[2]
  IC50: 13000 nM
[3]
  IC50: 1.6 µM
[4]; [10]
  Ki: > 8500 nM
[5]; [10]
  Ki: > 7.5 µM
[6]; [10]
  Ki: > 13 µM
[7]; [10]
  Ki: 6.9 ± 1.2 µM
[8]; [10]
  Ki: 3.1 ± 0.7 µM

## CCC(C(=O)c1ccc2c(c1)OCO2)N1CCCC1 (stereo not drawn) [MDPBP, 3,4-methylenedioxy-α-pyrrolidinobutiophenone]
[1]
  IC50: 140 nM
[2]
  IC50: 70 nM
[3]
  IC50: 11 µM
[4]; ref Rickli et al. (2015)
  Ki: 20 ± 2 nM
[5]; ref Rickli et al. (2015)
  Ki: 4.1 ± 1.2 µM
[6]; ref Rickli et al. (2015)
  Ki: > 20 µM
[7]; ref Rickli et al. (2015)
  Ki: > 4.9 µM
[8]; ref Rickli et al. (2015)
  Ki: > 20 µM

## CCCCC(C(=O)c1ccc2c(c1)OCO2)N1CCCC1 (stereo not drawn) [MDPHP, 3,4-methylenedioxy-α-pyrrolidinohexanophenone]
[1]
  IC50: 60 nM
[2]
  IC50: 50 nM
[3]
  IC50: 9 µM

## CC(C(=O)c1ccc2c(c1)OCO2)N1CCCC1 (stereo not drawn) [MDPPP, 3,4-methylenedioxy-α-pyrrolidinopropiophenone]
[1]
  IC50: 1700 nM
[2]
  IC50: 540 nM
[3]
  IC50: 43 µM
[4]; ref Rickli et al. (2015)
  Ki: 180 ± 50 nM
[5]; ref Rickli et al. (2015)
  Ki: 12 ± 1 µM
[6]; ref Rickli et al. (2015)
  Ki: > 10 µM
[7]; ref Rickli et al. (2015)
  Ki: > 15 µM
[8]; ref Rickli et al. (2015)
  Ki: > 20 µM

## CCCC(C(=O)c1ccc2c(c1)OCO2)N1CCCC1 (centres unmarked) [MDPV, 3,4-methylenedioxypyrovalerone]
[1]
  IC50: 50 nM
[2]
  IC50: 30 nM
[3]
  IC50: 8.4 µM
[4]; ref Simmler et al. (2013)
  Ki: 10 ± 2 nM
[5]; ref Simmler et al. (2013)
  Ki: 2.9 ± 0.1 µM
[6]; ref Simmler et al. (2013)
  Ki: > 30 µM
[7]; ref Simmler et al. (2013)
  Ki: > 6 µM
[8]; ref Simmler et al. (2013)
  Ki: > 10 µM

## COc1ccc(C(=O)C(C)N2CCCC2)cc1 (stereo not drawn) [MOPPP, 4-methoxy-α-pyrrolidinopropiophenone]
[1]
  IC50: 8700 nM
[1]; than observed for α-PPP
  NET IC50 value fold higher: about 14 fold
[2]
  IC50: 4600 nM
[2]; (1/DAT IC50):(1/SERT IC50)
  DAT/SERT Ratio (95% CI): 20 (4.0–40)
[2]; compared to α-PPP
  fold lower inhibition potency at the DAT: 8 fold
[3]
  IC50: 94 µM

## CCCCC(C(=O)c1ccc(C)cc1)N1CCCC1 (stereo not drawn) [MPHP, 4-methyl-α-pyrrolidinohexanophenone]
[1]
  IC50: 70 nM
[2]
  IC50: 60 nM
[3]
  IC50: 11 µM

## CCCCC(NCC)C(=O)c1ccccc1 (centres unmarked) [NEH, N-ethylamine-hexanophenone]
[1]
  IC50: 170 nM
[2]
  IC50: 180 nM
[3]
  IC50: 47 µM

## CCCC(C(=O)c1ccc(C)cc1)N1CCCC1 (centres unmarked) [Pyrovalerone, pyrovalerone]
[1]
  IC50: 60 nM
[2]
  DAT/SERT Ratio (95% CI): 256 (125–450)
  IC50: 50 nM
[2]; listed as pyrovalerone
  DAT/SERT Ratio (95% CI): > 72
[3]
  IC50: 13 µM
[4]; ref Simmler et al. (2013)
  Ki: 30 ± 10 nM
[5]; ref Simmler et al. (2013)
  Ki: 5 ± 0.3 µM
[6]; ref Simmler et al. (2013)
  Ki: > 30 µM
[7]; ref Simmler et al. (2013)
  Ki: > 6 µM
[8]; ref Simmler et al. (2013)
  Ki: > 10 µM

## CCCCC(C(=O)c1ccccc1)N1CCCC1 (stereo not drawn) [α-PHP, α-pyrrolidinohexanophenone]
[1]
  IC50: 60 nM
  fold higher inhibition potency at the NET: 11 fold
[2]
  IC50: 60 nM
[2]; (1/DAT IC50):(1/SERT IC50)
  DAT/SERT Ratio (95% CI): >1000
[2]; compared to α-PPP
  fold higher potency at the DAT: 9 fold
[3]
  IC50: 245 µM

## CC(C(=O)c1ccccc1)N1CCCC1 (stereo not drawn) [α-PPP, α-pyrrolidinopropiophenone]
[1]
  IC50: 640 nM
[2]
  IC50: 560 nM
[2]; (1/DAT IC50):(1/SERT IC50)
  DAT/SERT Ratio (95% CI): >1000
[3]
  IC50: > 1000 µM

## CCCC(C(=O)c1ccccc1)N1CCCC1 (stereo not drawn) [α-PVP, α-pyrrolidinopentiophenone]
[1]
  IC50: 20 nM
  fold higher inhibition potency at the NET: 32 fold
[2]
  IC50: 30 nM
[2]; (1/DAT IC50):(1/SERT IC50)
  DAT/SERT Ratio (95% CI): >1000
[2]; compared to α-PPP
  fold higher potency at the DAT: 17 fold
[3]
  IC50: 279 µM
[4]; ref Rickli et al. (2015)
  Ki: 7 ± 2 nM
[5]; ref Rickli et al. (2015)
  Ki: > 30 µM
[6]; ref Rickli et al. (2015)
  Ki: > 10 µM
[7]; ref Rickli et al. (2015)
  Ki: > 15 µM
[8]; ref Rickli et al. (2015)
  Ki: > 20 µM

Reference: paper PMC8348686, “The Pharmacological Profile of Second Generation Pyrovalerone Cathinones and Related Cathinone Derivative” (International Journal of Molecular Sciences, 2021)
